Laboratory results taken from patent US20210094954A1, “PREPARATION METHODS AND APPLICATIONS OF 3,5-DISUBSTITUTED METHYLPYRAZOLO[1,5-A]PYRIMIDINE-7-HYDROXYLIC SALTS” (priority 2019, published 2021).
Where two headings read alike, the source gives them in different places.

Assays:
Format in all cases: cell-based
[1] = system: Bacillus cereus 2; experiment: microbe, parasite or virus in culture; settings: 37° C., 24 hours; for MIC: Bacillus cereus, 2, read-out: MIC values of in vitro antibacterial test results
[2] = system: Bacillus subtilis 168; experiment: microbe, parasite or virus in culture; settings: 37° C., 24 hours; for MIC: Bacillus subtilis, 168, read-out: MIC values of in vitro antibacterial test results
[3] = system: Enterococcus faecalis 29212; experiment: microbe, parasite or virus in culture; settings: 37° C., 24 hours; for MIC: Enterococcus faecalis, 29212, read-out: MIC values of in vitro antibacterial test results
[4] = system: Enterococcus faecalis F2518(VRE); experiment: microbe, parasite or virus in culture; settings: for MIC: Enterococcus faecalis, VRE, 24 h, read-out: MIC values of in vitro antibacterial test results
[5] = system: Staphylococcus aureus 29231; experiment: microbe, parasite or virus in culture; settings: 37° C., 24 hours; for MIC: Staphylococcus aureus, 29231, read-out: MIC values of in vitro antibacterial test results
[6] = system: Staphylococcus aureus 43300(MRSA); experiment: microbe, parasite or virus in culture; settings: for MIC: Staphylococcus aureus, MRSA
[7] = system: Staphylococcus aureus 703(MRSA); experiment: microbe, parasite or virus in culture; settings: for MIC: Staphylococcus aureus, MRSA
[8] = system: Streptococcus pneumoniae 6303 (PRSP); experiment: microbe, parasite or virus in culture; settings: for MIC: Streptococcus pneumoniae, PRSP, 24 h, read-out: MIC values of in vitro antibacterial test results
[9] = system: Streptococcus pneumoniae M2; experiment: microbe, parasite or virus in culture; settings: 37° C., 24 hours; for MIC: Streptococcus pneumoniae, M2, read-out: MIC values of in vitro antibacterial test results
[10] = system: Streptococcus agalactia B group; experiment: microbe, parasite or virus in culture; settings: 37° C., 24 hours; for MIC: Streptococcus, read-out: MIC values of in vitro antibacterial test results
[11] = system: Streptococcus pneumoniae 10351; experiment: microbe, parasite or virus in culture; settings: 37° C., 24 hours; for MIC: Streptococcus pneumoniae, 10351, read-out: MIC values of in vitro antibacterial test results
[12] = system: Bacillus anthracis Bacillus 1; experiment: microbe, parasite or virus in culture; settings: for MIC: Bacillus anthracis, 24 h, read-out: MIC values of in vitro antibacterial test results
[13] = system: Diphtheria bacilli; experiment: organism not typed; settings: 37° C., 24 hours; for MIC: read-out: MIC values of in vitro antibacterial test results
[14] = system: Clostridium perfringens; experiment: microbe, parasite or virus in culture; settings: for MIC: Clostridium perfringens, 24 h, read-out: MIC values of in vitro antibacterial test results
[15] = system: Oral Candida; experiment: microbe, parasite or virus in culture; settings: for MIC: Candida
[16] = system: Peel fungus; experiment: organism not typed; settings: 37° C., 24 hours; for MIC: read-out: MIC values of in vitro antibacterial test results
[17] = system: F2518(VRE), Staphylococcus aureus resistant strain 43300(MRSA), 703 (MRSA), pneumococcal resistance bacteria 6303(PRSP); experiment: microbe, parasite or virus in culture; settings: read-out: MIC values (μM)
[18] = 24 h, read-out: MIC values of in vitro antibacterial test results
[19] = 37° C., 24 hours, read-out: MIC values of in vitro antibacterial test results

Row | SMILES | MIC [1] [µg/mL] | MIC [2] [µg/mL] | MIC [3] [µg/mL] | MIC [4] [µg/mL] | MIC [5] [µg/mL] | MIC [6, 18] [µg/mL] | MIC [7, 18] [µg/mL] | MIC [8] [µg/mL] | MIC [9] [µg/mL] | MIC [10] [µg/mL] | MIC [11] [µg/mL] | MIC [12] [µg/mL] | MIC [13] [µg/mL] | MIC [14] [µg/mL] | MIC [15, 19] [µg/mL] | MIC [16] [µg/mL] | MIC [17] [µg/mL] | also measured
1 | Cc1nn2c([O-])cc(-c3ccc(C(F)(F)F)cc3)nc2c1-c1ccc(F)cc1F.[Na+] [Compound 1, sodium 3-(2,4-difluorophenyl)-2-methyl-5-(4-(trifluoromethyl)-phenyl)pyrazolo[1,5-α]pyrimidin-7-olate] | < 100 | < 100 | < 100 | < 150 | < 100 | < 100 | < 150 | < 100 | < 100 | < 150 | < 100 | > 150 | > 150 | > 150 | < 100 | > 150 | < 100 | MIC ([15]; read-out: MIC values (μM)): < 100 µg/mL
2 | Cc1nn2c([O-])cc(-c3ccc(C#N)cc3)nc2c1-c1ccc(F)cc1F.[Na+] [Compound 2, Sodium 5-(4-cyanophenyl)-3-(2,4-difluorophenyl)-2-methylpyrazolo[1,5-α]pyrimidin-7-olate] | < 100 | < 150 | < 100 | < 150 | < 100 | < 50 | < 50 | < 150 | < 150 | < 150 | < 100 | > 150 | > 150 | > 150 | < 150 | < 150 | < 100 | MIC ([6]; read-out: MIC values (μM)): < 50 µg/mL; MIC ([7]; read-out: MIC values (μM)): < 50 µg/mL
3 | COc1ccc(-c2cc([O-])n3nc(C)c(-c4ccc(F)cc4F)c3n2)cc1.[Na+] [Compound 4, Sodium 3-(2,4-difluorophenyl)-5-(4-methoxyphenyl)-2-methylpyrazolo[1,5-α]pyrimidin-7-olate] | < 150 | > 150 | < 150 | < 150 | > 150 | < 100 | < 150 | > 150 | < 150 | > 150 | > 150 | > 150 | > 150 | > 150 | < 150 | < 150 | < 100 | 
4 | Cc1nn2c([O-])cc(-c3ccc([O-])cc3)nc2c1-c1ccc(F)cc1F.[Na+].[Na+] [Compound 6] | < 100 | < 100 | < 100 | < 150 | < 100 | < 100 | < 100 | < 150 | < 150 | < 150 | < 100 | > 150 | > 150 | > 150 | < 100 | < 150 | < 100 | MIC ([15]; read-out: MIC values (μM)): < 100 µg/mL
5 | Cc1nn2c([O-])cc(-c3ccc(C(=O)[O-])cc3)nc2c1-c1ccc(F)cc1F.[Na+].[Na+] [Compound 7, Disodium 4-(3-(2,4-difluorophenyl)-2-methyl-7-hydroxy-pyrazolo[1,5-α]pyrimidin-5-yl)benzoate] | < 150 | > 150 | < 150 | < 150 | > 150 | < 100 | < 150 | > 150 | < 100 | > 150 | > 150 | > 150 | > 150 | > 150 | > 150 | < 150 | < 100 | 
6 | Cc1nn2c([O-])cc(-c3ccc(S(=O)[O-])cc3)nc2c1-c1ccc(F)cc1F.[Na+].[Na+] [Compound 8] | < 150 | > 150 | < 150 | < 150 | > 150 | < 150 | < 150 | > 150 | < 150 | > 150 | > 150 | > 150 | > 150 | > 150 | < 150 | < 150 |  | 
7 | Cc1nn2c([O-])cc(-c3ccc(C(N)=O)cc3)nc2c1-c1ccc(F)cc1F.[Na+] [Compound 11, Sodium 5-(4-carbamoylphenyl)-3-(2,4-difluorophenyl)-2-methylpyrazolo[1,5-α]pyrimidin-7-olate] | < 150 | > 150 | < 150 | < 150 | > 150 | < 100 | < 150 | > 150 | < 100 | > 150 | > 150 | > 150 | > 150 | > 150 | < 150 | < 150 | < 100 | 
8 | Cc1nn2c([O-])cc(-c3ccc([S](=O)(=O)[Na])nc3)nc2c1-c1ccc(F)cc1F.[Na+] [Compound 28, Disodium 5-(3-(2,4-difluorophenyl)-2-methyl-7-hydroxypyrazolo[1,5-α]pyrimidin-5-yl)pyridine-2-sulfinate] |  |  |  |  |  |  |  |  |  |  |  |  |  |  |  |  |  | MIC values of in vitro antibacterial test results [1]: ++ (key: − represents the MIC value (μM) > 150 μg/mL; + represents the MIC value (μM) < 150 μg/mL; ++ represents the MIC value (μM) < 100 μg/mL; +++ represents the MIC value (μM) < 50 μg/mL); MIC values of in vitro antibacterial test results [2]: − (key: − represents the MIC value (μM) > 150 μg/mL; + represents the MIC value (μM) < 150 μg/mL; ++ represents the MIC value (μM) < 100 μg/mL; +++ represents the MIC value (μM) < 50 μg/mL); MIC values of in vitro antibacterial test results [3]: + (key: − represents the MIC value (μM) > 150 μg/mL; + represents the MIC value (μM) < 150 μg/mL; ++ represents the MIC value (μM) < 100 μg/mL; +++ represents the MIC value (μM) < 50 μg/mL); MIC values of in vitro antibacterial test results ([4]; 37° C., 24 hours): + (key: − represents the MIC value (μM) > 150 μg/mL; + represents the MIC value (μM) < 150 μg/mL; ++ represents the MIC value (μM) < 100 μg/mL; +++ represents the MIC value (μM) < 50 μg/mL); MIC values of in vitro antibacterial test results [5]: − (key: − represents the MIC value (μM) > 150 μg/mL; + represents the MIC value (μM) < 150 μg/mL; ++ represents the MIC value (μM) < 100 μg/mL; +++ represents the MIC value (μM) < 50 μg/mL); MIC values of in vitro antibacterial test results ([6]; 37° C., 24 hours): + (key: − represents the MIC value (μM) > 150 μg/mL; + represents the MIC value (μM) < 150 μg/mL; ++ represents the MIC value (μM) < 100 μg/mL; +++ represents the MIC value (μM) < 50 μg/mL); MIC values of in vitro antibacterial test results ([7]; 37° C., 24 hours): + (key: − represents the MIC value (μM) > 150 μg/mL; + represents the MIC value (μM) < 150 μg/mL; ++ represents the MIC value (μM) < 100 μg/mL; +++ represents the MIC value (μM) < 50 μg/mL); MIC values of in vitro antibacterial test results ([8]; 37° C., 24 hours): − (key: − represents the MIC value (μM) > 150 μg/mL; + represents the MIC value (μM) < 150 μg/mL; ++ represents the MIC value (μM) < 100 μg/mL; +++ represents the MIC value (μM) < 50 μg/mL); MIC values of in vitro antibacterial test results [9]: ++ (key: − represents the MIC value (μM) > 150 μg/mL; + represents the MIC value (μM) < 150 μg/mL; ++ represents the MIC value (μM) < 100 μg/mL; +++ represents the MIC value (μM) < 50 μg/mL); MIC values of in vitro antibacterial test results [10]: − (key: − represents the MIC value (μM) > 150 μg/mL; + represents the MIC value (μM) < 150 μg/mL; ++ represents the MIC value (μM) < 100 μg/mL; +++ represents the MIC value (μM) < 50 μg/mL); MIC values of in vitro antibacterial test results [11]: − (key: − represents the MIC value (μM) > 150 μg/mL; + represents the MIC value (μM) < 150 μg/mL; ++ represents the MIC value (μM) < 100 μg/mL; +++ represents the MIC value (μM) < 50 μg/mL); MIC values of in vitro antibacterial test results ([12]; 37° C., 24 hours): − (key: − represents the MIC value (μM) > 150 μg/mL; + represents the MIC value (μM) < 150 μg/mL; ++ represents the MIC value (μM) < 100 μg/mL; +++ represents the MIC value (μM) < 50 μg/mL); MIC values of in vitro antibacterial test results [13]: − (key: − represents the MIC value (μM) > 150 μg/mL; + represents the MIC value (μM) < 150 μg/mL; ++ represents the MIC value (μM) < 100 μg/mL; +++ represents the MIC value (μM) < 50 μg/mL); MIC values of in vitro antibacterial test results ([14]; 37° C., 24 hours): − (key: − represents the MIC value (μM) > 150 μg/mL; + represents the MIC value (μM) < 150 μg/mL; ++ represents the MIC value (μM) < 100 μg/mL; +++ represents the MIC value (μM) < 50 μg/mL); MIC values of in vitro antibacterial test results ([15]; 37° C., 24 hours): ++ (key: − represents the MIC value (μM) > 150 μg/mL; + represents the MIC value (μM) < 150 μg/mL; ++ represents the MIC value (μM) < 100 μg/mL; +++ represents the MIC value (μM) < 50 μg/mL); MIC values of in vitro antibacterial test results [16]: + (key: − represents the MIC value (μM) > 150 μg/mL; + represents the MIC value (μM) < 150 μg/mL; ++ represents the MIC value (μM) < 100 μg/mL; +++ represents the MIC value (μM) < 50 μg/mL)
